Measured values taken from PubChem BioAssay AID2060900 (Molecular Pharmacology Branch, DTP, NCI, 2025).
One block for each compound: values may come before it.

Tested on: 521955-158-R2-J5-PDC complex spheroids, viability
Assay: Anticancer human tumor 521955-158-R2-J5-PDC patient-derived pancreatic carcinoma cell line growth inhibition [RAS]
Settings: for IC50: curve of first compound; for viability, T/C: stronger effect = lower value
Excerpt: RAS pathway inhibitors in Combinations in Complex Spheroids
A high-throughput screen of multi-cell type tumor spheroids was designed to identify active combinations of RAS pathway inhibitors and targeted small molecules. Complex spheroids include a stromal component modeled by human endothelial cells (HUVEC) and fibroblasts modeled by human mesenchymal stem cells (MSCs). The concentration ranges selected for each drug and investigational agent were based upon clinically achievable concentrations if the clinical Cmax of the agent was known.
Compounds. The drugs and investigational agents: abemaciclib (NSC768073), cobimetinib (NSC768068), divarasib (GDC6063, NSC841802), docetaxel (NSC628503), GDC-1971 (RLY-1971, NSC841576), gemcitabine (NSC613327), inavolisib (NSC800729), ipatasertib (NSC767898), KB-0742 (NSC834161), MRTX-1133 (NSC836407), osimertinib (NSC779217), RMC-4630 (NSC839698), RMC-6236 (NSC851965), RMC-6291 (NSC852671), Ro-3306 (NSC812927), sapanisertib (NSC764658), SN-38 (NSC673596), staurosporine (NSC755774), SY5609 (NSC837396), and tovorafenib (DAY101, NSC766906), were obtained from the National Cancer Institute (NCI) Developmental Therapeutics Program Chemical Repository. The FDA-approved anticancer drug set is available from the NCI Developmental Therapeutics Program. […] The stock solutions were prepared in dimethyl sulfoxide (DMSO, Sigma-Aldrich, St. Louis, MO, cat. D2650) at 800-fold the tested concentration and stored at -70 degrees C prior to their use. All drugs and investigational agents were tested over a range starting from a high concentration at or near the clinical Cmax and decreasing in half-log increments. If the clinical Cmax for an agent had not been determined, the highest concentration tested was 10 microM.
Cell Culture. All cells were maintained in an incubator at 37 degrees C and 5% CO2 with 95% humidity. The PDC lines were cultured according to standard operating procedures established by the NCI PDMR. All PDCs were thawed and cultured in Matrigel-coated flasks prepared with a working solution of 1X Ham's F-12 nutrient mix, without supplementation (Invitrogen, Waltham, MA, cat. 11765054), 100 U/mL penicillin-streptomycin (Invitrogen, cat. 15140122), and 2.5% Matrigel (Corning Inc., Corning, NY, cat. 354248) for the first three passages. The 362531-283-R-J2-PDC and 782815-120-R-J1-PDC lines were cultured in 6C/Colon 1B media, which includes advanced DMEM/F-12 (Thermo Fisher Scientific, cat. 12634028), 10 mM HEPES (Thermo Fisher Scientific, cat. 15630080), 1X GlutaMAX supplement (Thermo Fisher Scientific, cat. 35050061), 0.1 mg/mL primocin (InvivoGen, San Diego, CA, cat. ant-pm-2), 10% defined fetal bovine serum, heat inactivated (HyClone Laboratories Inc., Logan, UT, cat. SH30070.03HI), 50% L-WRN conditioned media (ATCC, cat. CRL-3276), 1.25 mM N-Acetyl-L-cysteine (Sigma-Aldrich, cat. A9165), 10 mM nicotinamide (Sigma-Aldrich, cat. N0636), 1X B-27 supplement (Thermo Fisher Scientific, cat. 17504044), 1X N-2 supplement (Thermo Fisher Scientific, cat. 17502048), 50 ng/mL human EGF (Thermo Fisher Scientific, cat. PHG0311), and 10 microM Y-27632 dihydrochloride (Tocris Bioscience, cat. 1254). The K12877-001-R-J1-PDC line was cultured in 6I media, which includes all 6C/Colon 1B media plus 10 ng/mL human FGF-10 (PeproTech, cat. 100-26), 1 ng/mL human FGF-2 (PeproTech, cat. 100-18B), 1 µM prostaglandin E2 (Tocris Bioscience, cat. 2296), […] hydrocortisone (Sigma-Aldrich, cat. H4001), and […] bovine insulin (Sigma-Aldrich, cat. I6634). The K86415-001-R-J1-PDC line was cultured in 6D media, which includes all 6C/Colon 1B media components minus the L-WRN conditioned media. The 485176-168-R4-J1-PDC was cultured in PANC media, which includes all 6C/Colon 1B media plus 100 ng/mL human FGF-10 (PeproTech, cat. 100-26), 500 nM SB-431542 (Selleckchem, cat. S1067), and 10 nM gastrin (Tocris Bioscience, cat. 3006). […]

[1] = second compound 0.0316 µM, first compound 0.0316 µM
[2] = second compound 0.0316 µM, first compound 0.1 µM
[3] = second compound 0.1 µM, first compound 0.0316 µM
[4] = second compound 0.1 µM, first compound 0.1 µM
[5] = second compound 0.316 µM, first compound 0.0316 µM
[6] = second compound 0.316 µM, first compound 0.1 µM
[7] = second compound 1 µM, first compound 0.0316 µM
[8] = second compound 1 µM, first compound 0.1 µM
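Further: compound exposure lasted seven days before the viability read.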
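Wherever viability, T/C is given: spheroids also contain HUVEC endothelial cells and mesenchymal stem cells as stroma.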

IC50 (second compound 0.00316 µM): 25.5 nM | IC50 (second compound 0.01 µM): 31.2 nM | IC50 (second compound 0.0316 µM): 25.7 nM | IC50 (second compound 0.1 µM): 26.3 nM | IC50 (second compound 0.316 µM): 22.2 nM | IC50 (second compound 1 µM): 27.3 nM
Compound: CC(C)n1nc(-c2ccc3oc(N)nc3c2)c2c(N)ncnc21 + C=CC(=O)N1CCN(c2nc(OCC3CCCN3C)nc3c(F)c(-c4nc(N)cc(C)c4C(F)(F)F)c(Cl)cc23)C(C)C1
viability, T/C (second compound 0.00316 µM, first compound 0.000316 µM): 103% | viability, T/C (second compound 0.00316 µM, first compound 0.001 µM): 77.8% | viability, T/C (second compound 0.00316 µM, first compound 0.00316 µM): 95.7% | viability, T/C (second compound 0.00316 µM, first compound 0.01 µM): 79.1% | viability, T/C (second compound 0.00316 µM, first compound 0.0316 µM): 43.5% | viability, T/C (second compound 0.00316 µM, first compound 0.1 µM): 34.5% | viability, T/C (second compound 0.01 µM, first compound 0.000316 µM): 93.8% | viability, T/C (second compound 0.01 µM, first compound 0.001 µM): 113% | viability, T/C (second compound 0.01 µM, first compound 0.00316 µM): 95.9% | viability, T/C (second compound 0.01 µM, first compound 0.01 µM): 88% | viability, T/C (second compound 0.01 µM, first compound 0.0316 µM): 49.3% | viability, T/C (second compound 0.01 µM, first compound 0.1 µM): 29.5% | viability, T/C (second compound 0.0316 µM, first compound 0.000316 µM): 76% | viability, T/C (second compound 0.0316 µM, first compound 0.001 µM): 134% | viability, T/C (second compound 0.0316 µM, first compound 0.00316 µM): 87.1% | viability, T/C (second compound 0.0316 µM, first compound 0.01 µM): 93.7% | viability, T/C [1]: 40.5% | viability, T/C [2]: 29.7% | viability, T/C (second compound 0.1 µM, first compound 0.000316 µM): 141% | viability, T/C (second compound 0.1 µM, first compound 0.001 µM): 141% | viability, T/C (second compound 0.1 µM, first compound 0.00316 µM): 109% | viability, T/C (second compound 0.1 µM, first compound 0.01 µM): 79.7% | viability, T/C [3]: 42.6% | viability, T/C [4]: 31.3% | viability, T/C (second compound 0.316 µM, first compound 0.000316 µM): 141% | viability, T/C (second compound 0.316 µM, first compound 0.001 µM): 134% | viability, T/C (second compound 0.316 µM, first compound 0.00316 µM): 91.3% | viability, T/C (second compound 0.316 µM, first compound 0.01 µM): 68.9% | viability, T/C [5]: 42.9% | viability, T/C [6]: 33.4% | viability, T/C (second compound 1 µM, first compound 0.000316 µM): 149% | viability, T/C (second compound 1 µM, first compound 0.001 µM): 90.5% | viability, T/C (second compound 1 µM, first compound 0.00316 µM): 87.6% | viability, T/C (second compound 1 µM, first compound 0.01 µM): 79.2% | viability, T/C [7]: 42.4% | viability, T/C [8]: 28.8%

IC50 (second compound 0.0316 µM): < 31.6 nM | IC50 (second compound 0.1 µM): < 31.6 nM | IC50 (second compound 0.316 µM): < 31.6 nM | IC50 (second compound 1 µM): < 31.6 nM | IC50 (second compound 3.16 µM): < 31.6 nM | IC50 (second compound 10 µM): < 31.6 nM
Compound: CC(=O)OC12COC1CC(O)C1(C)C(=O)C(O)C3=C(C)C(OC(=O)C(O)C(NC(=O)OC(C)(C)C)c4ccccc4)CC(O)(C(OC(=O)c4ccccc4)C21)C3(C)C (centres undefined) + C#Cc1c(F)ccc2cc(O)cc(-c3ncc4c(N5CC6CCC(C5)N6)nc(OCC56CCCN5CC(F)C6)nc4c3F)c12
viability, T/C [1]: 32.5% | viability, T/C [2]: 35.9% | viability, T/C (second compound 0.0316 µM, first compound 0.316 µM): 32.6% | viability, T/C (second compound 0.0316 µM, first compound 1 µM): 30.2% | viability, T/C (second compound 0.0316 µM, first compound 3.16 µM): 37.5% | viability, T/C (second compound 0.0316 µM, first compound 10 µM): 47.2% | viability, T/C [3]: 33.3% | viability, T/C [4]: 39.6% | viability, T/C (second compound 0.1 µM, first compound 0.316 µM): 35.2% | viability, T/C (second compound 0.1 µM, first compound 1 µM): 37.7% | viability, T/C (second compound 0.1 µM, first compound 3.16 µM): 35.6% | viability, T/C (second compound 0.1 µM, first compound 10 µM): 40.4% | viability, T/C [5]: 33.2% | viability, T/C [6]: 31.7% | viability, T/C (second compound 0.316 µM, first compound 0.316 µM): 28.6% | viability, T/C (second compound 0.316 µM, first compound 1 µM): 30.9% | viability, T/C (second compound 0.316 µM, first compound 3.16 µM): 37% | viability, T/C (second compound 0.316 µM, first compound 10 µM): 38.7% | viability, T/C [7]: 21.7% | viability, T/C [8]: 34.3% | viability, T/C (second compound 1 µM, first compound 0.316 µM): 32.6% | viability, T/C (second compound 1 µM, first compound 1 µM): 29.4% | viability, T/C (second compound 1 µM, first compound 3.16 µM): 51.5% | viability, T/C (second compound 1 µM, first compound 10 µM): 40.5% | viability, T/C (second compound 3.16 µM, first compound 0.0316 µM): 27.4% | viability, T/C (second compound 3.16 µM, first compound 0.1 µM): 33.3% | viability, T/C (second compound 3.16 µM, first compound 0.316 µM): 30.8% | viability, T/C (second compound 3.16 µM, first compound 1 µM): 33.4% | viability, T/C (second compound 3.16 µM, first compound 3.16 µM): 31.1% | viability, T/C (second compound 3.16 µM, first compound 10 µM): 33% | viability, T/C (second compound 10 µM, first compound 0.0316 µM): 24.8% | viability, T/C (second compound 10 µM, first compound 0.1 µM): 34.1% | viability, T/C (second compound 10 µM, first compound 0.316 µM): 28.3% | viability, T/C (second compound 10 µM, first compound 1 µM): 28.7% | viability, T/C (second compound 10 µM, first compound 3.16 µM): 32.1% | viability, T/C (second compound 10 µM, first compound 10 µM): 25.1%
